This is an account of results in article PMC7377361, “Pressurized DNA state inside herpes capsids—A novel antiviral target” (PLoS Pathogens, 2020).

The nature of series [1]: In vivo toxicity studies in mice (NIH/NIAID preclinical service). The protocol: A control group was treated with PBS. […] No signs of distress or significant weight loss were observed during the 4 days of treatment. […]
B. In vivo toxicity studies in mice for bPEI 600 and DAB-Am-4. Experiments were conducted through NIAID/NIH preclinical service agreement No HHSN272201700017I/ […]
Procedures and Endpoints:
1- Baseline weights of all mice
2- IP treatment (twice a day, for 4 days)
3- Daily assessment of weights and condition
4- All animals sacrificed the following morning after the last evening treatment 5- Blood samples collected by IC stick for lab tests (liver, spleen and blood profiles) 6- Internal organs examined for signs of gross tissue toxicity
1. Toxicity evaluation of bPEI 600 Da in mice.
A toxicity screen was performed in uninfected mice treated with 3 doses of bPEI 600 Da, administered for 4 days. In this study, 3 doses of 5, 10 and 25 mg/kg/day were administered twice daily IP for 4 days (n=4/group). A control group was treated with the vehicle (PBS). The mice were examined daily and the weights and general condition were recorded daily. To examine liver, renal and blood function parameters, blood samples were obtained by intracardiac puncture at the end of the study (the following day after last dose) and the mice were sacrificed to examine the internal organs for signs of gross tissue toxicity.
The weights were recorded
In order to confirm the results of the lab results obtained in the toxicity study, a second group of slightly larger mice were treated with the high and the low doses of bPEI 600 Da (25 mg/kg and 5 mg/kg, n=6/group) and the vehicle control (PBS, n=4) for 4 days. Blood samples were collected at the end of the study for liver and renal chemistry profiles. The results are shown in the next […]
REN AL PBS 5 mg/kg 25 mg/kg
LIVER PBS 5 mg/kg 25 mg/kg
Al b:Gl ob R a ti o 1 1 1 […]
obtained from the second group of mice treated with bPEI 600 Da for 4 days.
No signs of distress or significant weight loss were ere observed during the […]
show significant differences with the results obtained in the PBS treated group of control mice.
Statistical analysis: Means were compared by Student’s t test, and mortality was compared by Fisher’s exact test, where applicable.
Ethics regulation of Laboratory animals: Animals were housed in facilities approved by the Association for Assessment and Accreditation of Laboratory Animal Care and Use Committee
2. Toxicity evaluation of DAB-Am-4 in mice.
A toxicity screen in uninfected mice was performed. 2 doses of 5 and 25 mg/kg/day were administered twice daily IP for 4 days (n=6/group). A control group was treated with the vehicle […]
The mice were examined daily and the weights and general condition were recorded. […]

Series [2] relates to HSV-1. Description: In vitro HSV-1 replication (plaque reduction) assay, EC50 and SI50 estimates. In kind it is cell-based. Set-up: unit not given beside the values. The following applies: HFF cells infected with HSV-1.
The mark [3] stands for this setting: mice, 5 mg/kg/day twice daily IP, 4 days, Mean, CBC (n=1-2).
Where [4] appears, read: mice, 5 mg/kg/day twice daily IP, 4 days, Mean, LIVER (n=5).
Where [5] appears, read: mice, 5 mg/kg/day twice daily IP, 4 days, Mean, RENAL (n=5).

Where only a bound is given, the exact number is not on record here.

In the case of `NCCCN(CCCN)CCCN(CCCCN(CCCN(CCCN)CCCN)CCCN(CCCN)CCCN)CCCN(CCCN)CCCN` [DAB-Am-8], in series [1] (mice, 5 and 25 mg/kg/day DAB-Am-4, 5 mg/kg/day DAB-Am-8), the “signs of acute toxicity (lab tests)” value was “no conclusive signs of acute toxicity”. The “signs of distress during the observation period” value in series [1] (mice, low dose 5 mg/kg/day) is “no significant signs”. Besides, in series [1] (setting [3]), the “%Lymphocyte” value was found to be 75%, the Hematocrit was determined as 42 and the WBC stood at 6. Also, in series [1] (setting [4]), the AST is listed as 437, the “Alb:Glob Ratio” value is 2, the Albumin is 3 and the Amylase is listed as 730. For the same compound, in series [1] (setting [4]), the “Bile Acids” value came out at 238, the Cholesterol amounted to 61, the “Creatine Kinase” value stood at 3149 and the GGT is under 1. Besides, in series [1] (setting [4]), the Globin came to 2, the “Total Protein” value turned out to be 4 and the Triglyceride was determined as 114. Moreover, in series [1] (setting [5]), the BUN is given as 22, the “Ca:Phos Ratio” value turned out to be 1, the Calcium came to 8 and the Chloride is recorded as 111. Besides, in series [1] (setting [5]), the Glucose came to 204, the K was 7, the Na is reported as 147 and the “Na:K Ratio” value is 22. Besides, in series [1] (setting [5]), the Phosphorus was determined as 9 and the “Uric Acid” value was determined as 2. In series [1] (mouse, in vivo, 25 mg/kg/day), the toxicity entry is “displayed toxicity”.

For `Nc1nc2c(ncn2COCCO)c(=O)[nH]1` [Acyclovir], the SI50 in series [2] is ~ 10^2.
